Measurements from PubChem BioAssay (NCI).
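Five concentrations, 48 hours, 96-well plates. TGI is the concentration that stops growth completely.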

Legend:
Experiment in all cases: inhibition of tumour cell growth, NCI panel, 48 h
KM20L2 colon = test system: KM20L2 colon
RXF-631 renal = test system: RXF-631 renal
U251 CNS = test system: U251 CNS
NCI-H23 lung = test system: NCI-H23 lung
NCI-H460 lung = test system: NCI-H460 lung
M19-MEL melanoma = test system: M19-MEL melanoma
UACC-62 melanoma = test system: UACC-62 melanoma
XF 498 CNS = test system: XF 498 CNS
OVCAR-4 ovarian = test system: OVCAR-4 ovarian
DLD-1 colon = test system: DLD-1 colon
RPMI-8226 leukemia = test system: RPMI-8226 leukemia
MOLT-4 leukemia = test system: MOLT-4 leukemia
786-0 renal = test system: 786-0 renal
UO-31 renal = test system: UO-31 renal
M14 melanoma = test system: M14 melanoma
SF-539 CNS = test system: SF-539 CNS
OVCAR-3 ovarian = test system: OVCAR-3 ovarian
NCI-H226 lung = test system: NCI-H226 lung
SNB-19 CNS = test system: SNB-19 CNS
A549 NSCLC = test system: A549 NSCLC
OVCAR-8 ovarian = test system: OVCAR-8 ovarian
HOP-62 NSCLC = test system: HOP-62 NSCLC
SK-MEL-28 melanoma = test system: SK-MEL-28 melanoma
K-562 leukemia = test system: K-562 leukemia
NCI-H522 lung = test system: NCI-H522 lung
RXF 393 renal = test system: RXF 393 renal
DMS 273 small cell lung = test system: DMS 273 small cell lung
SNB-75 CNS = test system: SNB-75 CNS
SF-268 CNS = test system: SF-268 CNS
CAKI-1 renal = test system: CAKI-1 renal
HOP-92 NSCLC = test system: HOP-92 NSCLC
MALME-3M melanoma = test system: MALME-3M melanoma
HT29 colon = test system: HT29 colon
SW-620 colon = test system: SW-620 colon
HCT-15 colon = test system: HCT-15 colon
SN12C renal = test system: SN12C renal
SR leukemia = test system: SR leukemia
SF-295 CNS = test system: SF-295 CNS
EKVX NSCLC = test system: EKVX NSCLC
HCT-116 colon = test system: HCT-116 colon
COLO 205 colon = test system: COLO 205 colon
HCC-2998 colon = test system: HCC-2998 colon
UACC-257 melanoma = test system: UACC-257 melanoma
ACHN renal = test system: ACHN renal
CCRF-CEM leukemia = test system: CCRF-CEM leukemia
SK-MEL-2 melanoma = test system: SK-MEL-2 melanoma
SK-MEL-5 melanoma = test system: SK-MEL-5 melanoma
TK-10 renal = test system: TK-10 renal
KM12 colon = test system: KM12 colon
HOP-18 NSCLC = test system: HOP-18 NSCLC
HL-60(TB) leukemia = test system: HL-60(TB) leukemia
LXFL 529 NSCLC = test system: LXFL 529 NSCLC
T-47D breast = test system: T-47D breast
DU-145 prostate = test system: DU-145 prostate
OVCAR-5 ovarian = test system: OVCAR-5 ovarian
BT-549 breast = test system: BT-549 breast
PC-3 prostate = test system: PC-3 prostate
MCF7 breast = test system: MCF7 breast
MDA-MB-435 = test system: MDA-MB-435
MDA-N = test system: MDA-N
LOX IMVI melanoma = test system: LOX IMVI melanoma
DMS 114 small cell lung = test system: DMS 114 small cell lung
A498 renal = test system: A498 renal
SK-OV-3 ovarian = test system: SK-OV-3 ovarian
IGROV1 ovarian = test system: IGROV1 ovarian

CS(=O)(=O)N(N(CCCl)S(=O)(=O)c1ccccc1)S(C)(=O)=O
TGI (KM20L2 colon): > 100 µM | TGI (RXF-631 renal): > 100 µM | TGI (U251 CNS): > 100 µM | TGI (NCI-H23 lung): > 100 µM | TGI (NCI-H460 lung): > 100 µM | TGI (M19-MEL melanoma): > 100 µM | TGI (UACC-62 melanoma): > 100 µM | TGI (XF 498 CNS): > 100 µM | TGI (OVCAR-4 ovarian): > 100 µM | TGI (DLD-1 colon): > 100 µM | TGI (RPMI-8226 leukemia): > 100 µM | TGI (MOLT-4 leukemia): > 100 µM | TGI (786-0 renal): > 100 µM | TGI (UO-31 renal): > 100 µM | TGI (M14 melanoma): > 100 µM | TGI (SF-539 CNS): > 100 µM | TGI (OVCAR-3 ovarian): > 100 µM | TGI (NCI-H226 lung): > 100 µM | TGI (SNB-19 CNS): > 100 µM | TGI (A549 NSCLC): > 100 µM | TGI (OVCAR-8 ovarian): > 100 µM | TGI (HOP-62 NSCLC): > 100 µM | TGI (SK-MEL-28 melanoma): > 100 µM | TGI (K-562 leukemia): > 100 µM | TGI (NCI-H522 lung): > 100 µM | TGI (RXF 393 renal): > 100 µM | TGI (DMS 273 small cell lung): > 100 µM | TGI (SNB-75 CNS): > 100 µM | TGI (SF-268 CNS): > 100 µM | TGI (CAKI-1 renal): > 100 µM | TGI (HOP-92 NSCLC): > 100 µM | TGI (MALME-3M melanoma): > 100 µM | TGI (HT29 colon): > 100 µM | TGI (SW-620 colon): > 100 µM | TGI (HCT-15 colon): > 100 µM | TGI (SN12C renal): > 100 µM | TGI (SR leukemia): > 100 µM | TGI (SF-295 CNS): > 100 µM | TGI (EKVX NSCLC): > 100 µM | TGI (HCT-116 colon): > 100 µM | TGI (COLO 205 colon): > 100 µM | TGI (HCC-2998 colon): > 100 µM | TGI (UACC-257 melanoma): > 100 µM | TGI (ACHN renal): > 100 µM | TGI (CCRF-CEM leukemia): > 100 µM | TGI (SK-MEL-2 melanoma): > 100 µM | TGI (SK-MEL-5 melanoma): > 100 µM | TGI (TK-10 renal): > 100 µM | TGI (KM12 colon): > 100 µM | TGI (HOP-18 NSCLC): > 100 µM | TGI (HL-60(TB) leukemia): > 100 µM | TGI (LXFL 529 NSCLC): > 100 µM

CCOC(=O)C(=Cc1ccc(Oc2ccccc2)cc1)C(=O)OCC
TGI (KM20L2 colon): 16.8 µM | TGI (RXF-631 renal): 12.1 µM | TGI (U251 CNS): 9.25 µM | TGI (NCI-H23 lung): 6.93 µM | TGI (T-47D breast): 24.6 µM | TGI (DU-145 prostate): 27.5 µM | TGI (OVCAR-5 ovarian): 14 µM | TGI (NCI-H460 lung): 40.7 µM | TGI (UACC-62 melanoma): 3.26 µM | TGI (XF 498 CNS): 11.3 µM | TGI (OVCAR-4 ovarian): 22.9 µM | TGI (BT-549 breast): 5.11 µM | TGI (DLD-1 colon): 5.21 µM | TGI (RPMI-8226 leukemia): 6.89 µM | TGI (MOLT-4 leukemia): 4.93 µM | TGI (786-0 renal): 3.47 µM | TGI (UO-31 renal): 11.8 µM | TGI (M14 melanoma): 9.6 µM | TGI (SF-539 CNS): 10.3 µM | TGI (OVCAR-3 ovarian): 19.1 µM | TGI (NCI-H226 lung): 12.1 µM | TGI (SNB-19 CNS): 17.5 µM | TGI (A549 NSCLC): 22.6 µM | TGI (OVCAR-8 ovarian): 10.7 µM | TGI (HOP-62 NSCLC): 11.2 µM | TGI (SK-MEL-28 melanoma): 7.49 µM | TGI (K-562 leukemia): 5.27 µM | TGI (NCI-H522 lung): 10.1 µM | TGI (RXF 393 renal): 4.69 µM | TGI (DMS 273 small cell lung): 3.68 µM | TGI (SNB-75 CNS): 11 µM | TGI (SF-268 CNS): 9.19 µM | TGI (PC-3 prostate): 6.12 µM | TGI (CAKI-1 renal): 28.4 µM | TGI (HOP-92 NSCLC): 16.2 µM | TGI (MALME-3M melanoma): 7.4 µM | TGI (HT29 colon): 11 µM | TGI (SW-620 colon): 5.9 µM | TGI (HCT-15 colon): 6.35 µM | TGI (SN12C renal): 5.65 µM | TGI (SR leukemia): 6.07 µM | TGI (MCF7 breast): 18.5 µM | TGI (MDA-MB-435): 6.33 µM | TGI (SF-295 CNS): 10.6 µM | TGI (MDA-N): 18.6 µM | TGI (LOX IMVI melanoma): 3.22 µM | TGI (EKVX NSCLC): 29.4 µM | TGI (HCT-116 colon): 5.93 µM | TGI (COLO 205 colon): 11.4 µM | TGI (DMS 114 small cell lung): 10.9 µM | TGI (HCC-2998 colon): 24 µM | TGI (A498 renal): 28.8 µM | TGI (SK-OV-3 ovarian): 20.5 µM | TGI (UACC-257 melanoma): 6.63 µM | TGI (ACHN renal): 18.3 µM | TGI (CCRF-CEM leukemia): 6.75 µM | TGI (SK-MEL-2 melanoma): 4.4 µM | TGI (IGROV1 ovarian): 20.8 µM | TGI (SK-MEL-5 melanoma): 3.9 µM | TGI (TK-10 renal): 19.4 µM | TGI (KM12 colon): 19 µM | TGI (HOP-18 NSCLC): 26.8 µM | TGI (HL-60(TB) leukemia): 5.54 µM | TGI (LXFL 529 NSCLC): 6.39 µM
